From US11484579B2, “Vitamins and alpha keto acid compositions for use in a treatment program for chronic kidney disease patients” (priority 2017, dated 2022)

Assay: Certificate of analysis: solubility
Assay type: physicochemical
Details: batch SCP-PAMA-03; specification: Soluble in water

O=C(Cc1ccccc1)C(=O)[O][Mg][O]C(=O)C(=O)Cc1ccccc1 [Alpha keto phenylalanine magnesium]
Solubility: Soluble in water
